Where two headings read alike, the source gives them in different places. Bridge positions count the residues as written; N and C are the ends. Square brackets hold non-standard residues; d marks the D form. Peptide text beside a SMILES is read from it. * marks the point of attachment. Benzoyl(4-OPh) = O=C(c1ccc(Oc2ccccc2)cc1)*; X33 = N#Cc1ccc(-c2cc(C(=O)*)ccc2Cl)cc1; X13 = N#Cc1ccc(-c2cc(C(=O)*)ccc2F)cc1; X17 = N#Cc1ccc(-c2cccc(C(=O)*)c2)cc1; X2 = N#Cc1ccc(-c2cc(C(=O)*)ccn2)cc1F; X29 = COc1cc(C(=O)*)cc(-c2ccccc2)c1; X30 = O=C(c1ccc(Cl)c(-c2ccccc2)c1)*; 2Naphthoyl = O=C(c1ccc2ccccc2c1)*; X24 = COc1ccc(-c2ccccc2)cc1C(=O)*; X31 = O=C(c1ccnc(-c2ccccc2Cl)c1)*; X5 = O=C(c1ccnc(-c2cccc(F)c2)c1)*; Dab = NCC[C@H](N)C(=O)O; Dap = NC[C@H](N)C(=O)O
Legend:
[1] = Cytotoxicity assay (LDH release), hRPTEC; type: cell-based, human; conditions: human
Outline: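 hRPTEC grown 72 h in REGM, then exposed to compounds at 100, 67, 44, 30, 20 and 13 micromolar for 24 h at 37° C, 5% CO2. LDH released into supernatant measured; TC50 (micromolar) derived. Compounds tested as trifluoroacetate salts unless otherwise noted.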

[2] = test system: AB-1649, polymyxin-resistant clinical isolate of Acinetobacter baumannii; type: cell-based
Outline: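 Broth dilution MIC per CLSI against the polymyxin-resistant A. baumannii isolate, 2-fold dilutions, overnight incubation, visual read of lowest concentration inhibiting growth. Run in duplicate, lower value reported when within 2-fold; MBC per CLSI M26-A guideline.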

[3] = test system: Pseudomonas aeruginosa strain PA01; type: cell-based
Outline: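 CLSI broth dilution against P. aeruginosa PA01 with two-fold concentration steps and overnight incubation; MIC is lowest concentration visibly inhibiting growth versus drug-free control, in mg/L. Compounds tested as trifluoroacetate salts, in duplicate, lower value reported if within 2-fold; control organisms and reference compounds included.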

[4] = test system: PA-1646, polymyxin-resistant clinical isolate of Pseudomonas aeruginosa; type: cell-based
Outline: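 Broth dilution MIC per CLSI with 2-fold concentration steps, read visually after overnight incubation as lowest concentration inhibiting growth; duplicates within 2-fold, lower value reported, with QC strains and reference compounds. Compounds tested as trifluoroacetate salts, polymyxin B as sulfate.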

[5] = test system: AB-3167, clinical isolate of Acinetobacter baumannii; type: cell-based
Outline: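 Broth dilution MIC per CLSI (M7-A8, M100-S20, M26-A for bactericidal), 2-fold dilution series, overnight incubation, visual read of lowest concentration inhibiting growth versus drug-free control. Duplicates run; lower value reported if within 2-fold, otherwise repeated. Compounds tested as trifluoroacetate salts; QC strains and reference compounds required in range.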

[6] = test system: PA-1646, polymyxin-resistant clinical isolate of Pseudomonas aeruginosa; type: cell-based; remark: listed apart in the source
Outline: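 Broth dilution MIC and bactericidal (MBC) testing per CLSI methods (M7-A8, M100-S20, M26-A) against polymyxin-resistant clinical P. aeruginosa isolate PA-1646. Compounds tested as trifluoroacetate salts, one as sulfate salt; values in mg/L.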

[7] = test system: EC-1, mouse virulent strain of Escherichia coli; type: cell-based; conditions: E. coli EC-1; overnight incubation, lower of duplicate values; trifluoroacetate salt (Example 1 and PMB sulfate)
Outline: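 Broth dilution per CLSI with 2-fold concentration steps and overnight incubation. MIC is the lowest concentration visibly inhibiting growth versus drug-free control, run in duplicate with the lower value reported. Duplicates differing by >2-fold were repeated, and control strains and reference compounds had to fall within range.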

[8] = test system: AB-1649, polymyxin-resistant clinical isolate of Acinetobacter baumannii; type: cell-based; remark: listed apart in the source
Outline: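 MIC and MBC were measured by CLSI broth dilution methods (M7-A8, M100-S20, M26-A) against a polymyxin-resistant clinical isolate and reported in mg/L. Compounds were tested as trifluoroacetate salts, with one exception tested as the sulfate.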

[9] = AB-1649, polymyxin-resistant clinical isolate of
[10] = PA-1646, polymyxin-resistant clinical isolate of

SMILES	CC50 at 24 h [1] [µM]	AB-1649 MIC [2, 9] [µg/mL]	PA01 MIC ([3]; strain) [µg/mL]	PA-1646 MIC [4, 10] [µg/mL]	AB-3167 MIC ([5]; AB-3167, clinical isolate of) [µg/mL]	PA-1646 MBC [6, 10] [µg/mL]	EC-1 MIC [7] [µg/mL]	AB-1649 MBC [8, 9] [µg/mL]	CC50 at 24 h ([1]; Human Renal Proximal Tubule Epithelial cells (hRPTEC), hRPTEC, 24 hours treatment, LDH release, Toxic Concentration 50%, read-out: hRPTEC TC50) [µM]	AB-1649 MIC ([2]; A. baumannii AB-1649, overnight incubation, lower of duplicate values, trifluoroacetate salt (Example 1 and PMB sulfate)) [µg/mL]	PA01 MIC ([3]; P. aeruginosa PA01, overnight incubation, lower of duplicate values, trifluoroacetate salt (Example 1 and PMB sulfate)) [µg/mL]	PA-1646 MIC ([4]; P. aeruginosa PA-1646, overnight incubation, lower of duplicate values, trifluoroacetate salt (Example 1 and PMB sulfate)) [µg/mL]	AB-3167 MIC ([5]; A. baumannii AB-3167, overnight incubation, lower of duplicate values, trifluoroacetate salt (Example 1 and PMB sulfate)) [µg/mL]	PA-1646 MBC ([6]; P. aeruginosa PA-1646, tested as trifluoroacetate salt (Example 1 and PMB as sulfate salt)) [µg/mL]	AB-1649 MBC ([8]; A. baumannii AB-1649, tested as trifluoroacetate salt (Example 1 and PMB as sulfate salt)) [µg/mL]
CC(C)C[C@@H]1NC(=O)[C@@H](Cc2ccccc2)NC(=O)[C@H](CCN)NC(=O)[C@@H](NC(=O)[C@H](CN)NC(=O)[C@@H](NC(=O)[C@H](CCN)NC(=O)c2ccc3ccccc3c2)[C@@H](C)O)CCNC(=O)[C@H]([C@@H](C)O)NC(=O)[C@H](CCN)NC(=O)[C@H](CCN)NC1=O [Example 6] (2Naphthoyl-[Dab]T[Dap][Dab][Dab][dF]L[Dab][Dab]T; lactam 4-C)	51	2	0.5	4	0.25	16	0.125	2							
CC(C)C[C@@H]1NC(=O)[C@@H](Cc2ccccc2)NC(=O)[C@H](CCN)NC(=O)[C@@H](NC(=O)[C@H](CN)NC(=O)[C@@H](NC(=O)[C@H](CCN)NC(=O)c2ccnc(-c3ccc(C#N)c(F)c3)c2)[C@@H](C)O)CCNC(=O)[C@H]([C@@H](C)O)NC(=O)[C@H](CCN)NC(=O)[C@H](CCN)NC1=O [Example 31] (X2-[Dab]T[Dap][Dab][Dab][dF]L[Dab][Dab]T; lactam 4-C)	55	4	1	4	0.5	8	0.5	16							
CC(C)C[C@@H]1NC(=O)[C@@H](Cc2ccccc2)NC(=O)[C@H](CCN)NC(=O)[C@@H](NC(=O)[C@H](CN)NC(=O)[C@@H](NC(=O)[C@H](CCN)NC(=O)c2ccc(Oc3ccccc3)cc2)[C@@H](C)O)CCNC(=O)[C@H]([C@@H](C)O)NC(=O)[C@H](CCN)NC(=O)[C@H](CCN)NC1=O [Example 42] ({Benzoyl(4-OPh)}-[Dab]T[Dap][Dab][Dab][dF]L[Dab][Dab]T; lactam 4-C)							0.25		27	1	0.5	1	0.25	4	1
CC(C)C[C@@H]1NC(=O)[C@@H](Cc2ccccc2)NC(=O)[C@H](CCN)NC(=O)[C@@H](NC(=O)[C@H](CN)NC(=O)[C@@H](NC(=O)[C@H](CCN)NC(=O)c2ccnc(-c3cccc(F)c3)c2)[C@@H](C)O)CCNC(=O)[C@H]([C@@H](C)O)NC(=O)[C@H](CCN)NC(=O)[C@H](CCN)NC1=O [Example 7] (X5-[Dab]T[Dap][Dab][Dab][dF]L[Dab][Dab]T; lactam 4-C)	41	1	0.5	2	0.25	8	0.125	1							
COc1cc(C(=O)N[C@@H](CCN)C(=O)N[C@H](C(=O)N[C@@H](CN)C(=O)N[C@H]2CCNC(=O)[C@H]([C@@H](C)O)NC(=O)[C@H](CCN)NC(=O)[C@H](CCN)NC(=O)[C@H](CC(C)C)NC(=O)[C@@H](Cc3ccccc3)NC(=O)[C@H](CCN)NC2=O)[C@@H](C)O)cc(-c2ccccc2)c1 [Example 17] (X29-[Dab]T[Dap][Dab][Dab][dF]L[Dab][Dab]T; lactam 4-C)	26	4	0.5	2	0.25	4	0.25	8							
CC(C)C[C@@H]1NC(=O)[C@@H](Cc2ccccc2)NC(=O)[C@H](CCN)NC(=O)[C@@H](NC(=O)[C@H](CN)NC(=O)[C@@H](NC(=O)[C@H](CCN)NC(=O)c2ccc(Cl)c(-c3ccc(C#N)cc3)c2)[C@@H](C)O)CCNC(=O)[C@H]([C@@H](C)O)NC(=O)[C@H](CCN)NC(=O)[C@H](CCN)NC1=O [Example 39] (X33-[Dab]T[Dap][Dab][Dab][dF]L[Dab][Dab]T; lactam 4-C)	20	4	1	1	0.5	4	0.5	4							
CC(C)C[C@@H]1NC(=O)[C@@H](Cc2ccccc2)NC(=O)[C@H](CCN)NC(=O)[C@@H](NC(=O)[C@H](CN)NC(=O)[C@@H](NC(=O)[C@H](CCN)NC(=O)c2ccc(F)c(-c3ccc(C#N)cc3)c2)[C@@H](C)O)CCNC(=O)[C@H]([C@@H](C)O)NC(=O)[C@H](CCN)NC(=O)[C@H](CCN)NC1=O [Example 33] (X13-[Dab]T[Dap][Dab][Dab][dF]L[Dab][Dab]T; lactam 4-C)	30	4	2	2	1	8	0.5	4							
COc1ccc(-c2ccccc2)cc1C(=O)N[C@@H](CCN)C(=O)N[C@H](C(=O)N[C@@H](CN)C(=O)N[C@H]1CCNC(=O)[C@H]([C@@H](C)O)NC(=O)[C@H](CCN)NC(=O)[C@H](CCN)NC(=O)[C@H](CC(C)C)NC(=O)[C@@H](Cc2ccccc2)NC(=O)[C@H](CCN)NC1=O)[C@@H](C)O [Example 36] (X24-[Dab]T[Dap][Dab][Dab][dF]L[Dab][Dab]T; lactam 4-C)	19	4	0.5	2	0.25	2	0.5	4							
CC(C)C[C@@H]1NC(=O)[C@@H](Cc2ccccc2)NC(=O)[C@H](CCN)NC(=O)[C@@H](NC(=O)[C@H](CN)NC(=O)[C@@H](NC(=O)[C@H](CCN)NC(=O)c2ccc(Cl)c(-c3ccccc3)c2)[C@@H](C)O)CCNC(=O)[C@H]([C@@H](C)O)NC(=O)[C@H](CCN)NC(=O)[C@H](CCN)NC1=O [Example 10] (X30-[Dab]T[Dap][Dab][Dab][dF]L[Dab][Dab]T; lactam 4-C)	14	1	1	0.5	0.5	1	0.25	1							
CC(C)C[C@@H]1NC(=O)[C@@H](Cc2ccccc2)NC(=O)[C@H](CCN)NC(=O)[C@@H](NC(=O)[C@H](CN)NC(=O)[C@@H](NC(=O)[C@H](CCN)NC(=O)c2cccc(-c3ccc(C#N)cc3)c2)[C@@H](C)O)CCNC(=O)[C@H]([C@@H](C)O)NC(=O)[C@H](CCN)NC(=O)[C@H](CCN)NC1=O [Example 32] (X17-[Dab]T[Dap][Dab][Dab][dF]L[Dab][Dab]T; lactam 4-C)	33	4	0.5	2	0.5	4	0.25	4							
CC(C)C[C@@H]1NC(=O)[C@@H](Cc2ccccc2)NC(=O)[C@H](CCN)NC(=O)[C@@H](NC(=O)[C@H](CN)NC(=O)[C@@H](NC(=O)[C@H](CCN)NC(=O)c2ccnc(-c3ccccc3Cl)c2)[C@@H](C)O)CCNC(=O)[C@H]([C@@H](C)O)NC(=O)[C@H](CCN)NC(=O)[C@H](CCN)NC1=O [Example 4] (X31-[Dab]T[Dap][Dab][Dab][dF]L[Dab][Dab]T; lactam 4-C)	86	1	0.5	4	0.25	16	0.125	1							

— patent US20120316105A1, “Polymyxin Derivates Useful As Antibacterial Agents” (priority 2011, published 2012)
